Test results as given in publication PMC10249896, “AI-Assisted chemical probe discovery for the understudied Calcium-Calmodulin Dependent Kinase, PNCK” (PLOS Computational Biology, 2023).
Where “and” joins values, the source holds several entries; their conditions need not be identical. Equal entries are not always repeated. Where two headings read alike, the source gives them in different places. Blank lines part the entries; values can stand above or below the compound they belong to.

Key:
[1] = Aqueous solubility observed on testing; format: physicochemical; conditions: stated on testing
[2] = target: T1, PNCK Nano-luciferase fusion (Homo sapiens, UniProt Q6P2M8); assay: NanoBRET Target Engagement Intracellular Kinase Assay, cell-based PNCK binding screen and dose response in HEK293 cells
T1 construct: host or cells: HEK293
T1 sequence (Q6P2M8 whole entry, the tested form may be a part): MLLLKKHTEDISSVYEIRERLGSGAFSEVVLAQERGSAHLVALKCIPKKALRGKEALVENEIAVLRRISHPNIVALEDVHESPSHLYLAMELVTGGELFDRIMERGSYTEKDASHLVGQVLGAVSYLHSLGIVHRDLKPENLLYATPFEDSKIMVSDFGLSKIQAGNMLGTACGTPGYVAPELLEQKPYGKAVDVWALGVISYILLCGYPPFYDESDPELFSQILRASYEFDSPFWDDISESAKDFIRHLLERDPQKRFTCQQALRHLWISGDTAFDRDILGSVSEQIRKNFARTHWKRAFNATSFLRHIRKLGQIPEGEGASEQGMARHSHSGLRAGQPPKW

[3] = target: T1, PNCK Nano-luciferase fusion; assay: as above; conditions: for IC50: 8-point concentration-response; for NanoBRET binding, result in words: cell-based screen / comparison with parent hit; for dose response raw signal: replicate values
Procedure: The NanoBRET Target Engagement Intracellular Kinase Assay (Promega N2520) is a cell-based binding screen which reads loss of BRET signal as a result of target binding. A PNCK Nano-luciferase fusion vector plasmid was generated custom by Promega. The K-10 tracer was used for the assay, as determined by Promega. The plasmid was maxiprepped by Genewiz for use in all future assays. HEK293 cells were seeded in a T175 flask in DMEM with 10% FBS. The following day, cells were counted to 10,000, resuspended in assay media (Optimem with no phenol red, 1% FBS). Plasmid and transfection reagent (Fugene HD, Promega E2311) were added to the mixture and cells were seeded in a white 96-well plate. After 20–24 hours, media was changed, and the assay proceeded according to protocol. K10 tracer was added at the recommended concentration of 1uM while compounds were initially screened at both 10uM and 1uM. Cells incubated with compound at 37 degrees Celsius for a maximum of 2 hours before the plate was read using Clariostar Plus. Data was normalized to Staurosporine and DMSO controls. For compounds selected for further analysis, dose response curves were generated using the same testing protocol but at 8 different concentrations: 24uM, 12uM, 6uM, 3uM, 1.5uM, .75uM 0.375uM and 0.1875uM. UM195 was tested with concentrations from 12uM to 0.09375. Similarly, compounds from the analog by catalog analysis were tested at concentrations from 24uM to 0.1875uM.
(§1) Data analysis of ADP Kinase Glo results were carried out per the manufacturer’s instructions. Results were represented as a percent decrease in activity. Data was normalized to staurosporine (positive control) as 100% decrease and DMSO (negative control) as a 0% decrease. Data for NanoBRET was analyzed by dividing the acceptor by the donor emission and […] to obtain raw millibret units (mBU). Background was subtracted using control emission averages. Data was normalized to positive and negative controls of staurosporine and DMSO. Concentration-response curves were plotted in GraphPad Prism 8 and IC50s were extrapolated using non-linear fit with concentrations transformed to logarithmic scale. Baseline was held constant and represented the average mBU of staurosporine controls while the top was constrained to represent the average mBU of DMSO controls. Error bars on dose-response curves represent standard deviations.

[4] = target: T2, GST-tagged PNCK recombinant protein (Homo sapiens, UniProt Q6P2M8); assay: ADP-Glo Kinase Assay, biochemical PNCK inhibitor screen; conditions: compound 10uM, 25uM ATP, normalized to DMSO and staurosporine controls; for inhibition at 10 µM: read-out: Avg. Normalized % Inhibition, 10uM, ADP Kinase Glo
T2 construct: GST; purchased Novus NBP1-99886
Procedure: ADP-Glo Kinase Assay (V6930, Promega) was used to screen the first round of compounds against PNCK. […] Autocamtide-II (GenScript RP10271) was used as the peptide substrate. This peptide was dissolved in water and prepared immediately prior to the assay. Calcium/Calmodulin 10X (Abcam ab189137) solution was used to create a custom kinase buffer: 40mM Tris,pH 7.5; 20mM MgCl2; 0.1mg/ml BSA; 50μM DTT and Ca2+/Calmodulin solution (0.03μg/μl, Calmodulin, 1mM Tris,pH 7.3, 0.5mM CaCl2). […] A standard curve was then done to determine the amount of protein needed to generate a signal in the linear range of the ATP curve. 100ng of PNCK and 2ng of substrate was used per well in the 96-well plate format of this assay. […] Plates were read using the Clariostar Plus. Data was normalized to a DMSO and staurosporine controls.
as §1

[5] = compound 1uM, HEK293, K10 tracer 1uM, normalized to staurosporine and DMSO, read-out: Avg. Normalized % Inhibition, 1uM, Nanobret
[6] = compound 10uM, HEK293, K10 tracer 1uM, normalized to staurosporine and DMSO, read-out: Avg. Normalized % Inhibition, 10uM, Nanobret

inhibition at 1 µM [3, 5]: 2.86%
inhibition at 10 µM [3, 6]: 17.6%
inhibition at 10 µM [4]: 38.2%
Compound: Cc1ccc(F)c(S(=O)(=O)Nc2ccc(-c3nn(C)cc3C(=O)O)cc2)c1 [UM_023]

inhibition at 1 µM [3, 5]: 0%
inhibition at 10 µM [3, 6]: 17.2%
inhibition at 10 µM [4]: 75.3%
Compound: CC(C)(C(=O)O)c1ccc(NS(=O)(=O)c2cc(F)c(F)cc2F)cc1 [UM_025]

inhibition at 1 µM [3, 5]: 0%
inhibition at 10 µM [3, 6]: 0%
Avg. Normalized % Inhibition, 10uM, ADP Kinase Glo [4]: 76.56%
Compound: CC(C)(CC(=O)Nc1ccc(Oc2ccnc3ccccc23)c(F)c1)C(=O)O [UM_026]

inhibition at 1 µM [3, 5]: 6.51%
inhibition at 10 µM [3, 6]: 7.78%
inhibition at 10 µM [4]: 51.7%
Compound: O=C(O)c1ccc(-c2nc3c([nH]2)CCN(C(=O)c2cc(C4CC4)n[nH]2)C3)cc1 [UM_034]

inhibition at 1 µM [3, 5]: 0%
inhibition at 10 µM [3, 6]: 0%
Avg. Normalized % Inhibition, 10uM, ADP Kinase Glo [4]: Negligible
Compound: COc1ccc(C(=O)/C=C/c2n[nH]c3cc(C(=O)O)ccc23)c(F)c1 [UM_020]

More lines, now with the values behind:

Compound: Cc1ccc(C)c(OCc2nc(-c3cccnn3)no2)c1C [UM_245]
aqueous solubility [1]: poor aqueous solubility

Compound: CC1CCc2c(sc(NC(=O)CSc3ncc(-c4ccc(F)cc4)[nH]3)c2C(N)=O)C1 (stereo not shown) [UM_252]
Dose-Response Curve Data (NanoBRET signal, replicates) ([2]; Concentration 1.00E-05 M): 5.51 and 5.44 and 5.21 and 5.32 and 4.78
Dose-Response Curve Data (NanoBRET signal, replicates) ([2]; Concentration 1.56E-07 M): 6.58 and 6.82 and 6.54 and 7.24 and 6.53
Dose-Response Curve Data (NanoBRET signal, replicates) ([2]; Concentration 3.13E-07 M): 6.79 and 6.18 and 7.47 and 6.16 and 7.19
IC50 ([3]; HEK293): 1090 nM
Dose-Response Curve Data (NanoBRET signal, replicates) ([3]; Concentration 1.25E-06 M): 5.69 and 4.76 and 5.57 and 5.29 and 6.48
Dose-Response Curve Data (NanoBRET signal, replicates) ([3]; Concentration 2.00E-05 M): 4.90 and 5.31 and 5.12 and 5.26 and 5.44
Dose-Response Curve Data (NanoBRET signal, replicates) ([3]; Concentration 2.50E-06 M): 5.05 and 5.03 and 4.81 and 5.42 and 6.45
Dose-Response Curve Data (NanoBRET signal, replicates) ([3]; Concentration 5.00E-06 M): 4.80 and 4.70 and 5.14 and 6.28 and 5.58
Dose-Response Curve Data (NanoBRET signal, replicates) ([3]; Concentration 6.25E-07 M): 5.77 and 5.39 and 5.91 and 7.06 and 6.32
NanoBRET binding, result in words [3]: improving from the IC50 of UM_228 by one order of magnitude
inhibition at 1 µM [3, 5]: 49.9%
inhibition at 10 µM [3, 6]: 79.1%

Compound: CN([C@@H](Cc1ccc(OS(=O)(=O)c2cccc3cnccc23)cc1)C(=O)N1CCN(c2ccccc2)CC1)S(=O)(=O)c1cccc2cnccc12 [KN-62, reference compound]
inhibition at 1 µM ([3]; HEK293, read-out: Avg. Normalized % Inhibition, 1uM, Nanobret): 31.2%
inhibition at 10 µM ([3]; HEK293, read-out: Avg. Normalized % Inhibition, 10uM, Nanobret): 81.5%
inhibition at 10 µM [4]: 100%

Compound: Cc1c(C(=O)O)sc2ncnc(NCc3nncn3CCc3ccccc3)c12 [UM_033]
inhibition at 1 µM [3, 5]: 8.63%
inhibition at 10 µM [3, 6]: 13.5%
inhibition at 10 µM [4]: 50.8%

Compound: Oc1c(/C=N/c2ccc(Br)cn2)sc2ccccc12 [UM_234]
aqueous solubility [1]: poor aqueous solubility
inhibition at 1 µM [3, 5]: 5.92%
inhibition at 10 µM [3, 6]: 17.1%

Compound: O=C1CN(C(=O)COc2ccc3c4c(c(=O)oc3c2)CCCCC4)CCN1 [UM_259]
dose response raw signal ([2]; Concentration (M) 2.00E-05, replicate values): 4.80 and 4.22 and 5.32 and 4.30
IC50 ([3]; HEK293): 2900 nM
dose response raw signal ([3]; Concentration (M) 1.00E-05): 4.13 and 4.39 and 5.19 and 4.12
dose response raw signal ([3]; Concentration (M) 1.25E-06): 5.91 and 7.63 and 6.69 and 6.36
dose response raw signal ([3]; Concentration (M) 1.56E-07): 7.98 and 8.01 and 8.32 and 8.22
dose response raw signal ([3]; Concentration (M) 2.50E-06): 4.91 and 6.63 and 5.69 and 5.36
dose response raw signal ([3]; Concentration (M) 3.13E-07): 8.79 and 8.75 and 7.57 and 7.89
dose response raw signal ([3]; Concentration (M) 5.00E-06): 4.98 and 5.24 and 5.45 and 6.11
dose response raw signal ([3]; Concentration (M) 6.25E-07): 8.89 and 8.75 and 7.37 and 7.79
NanoBRET binding, result in words [3]: higher affinity for PNCK than the parent
inhibition at 1 µM [3, 5]: 27.5%
inhibition at 10 µM [3, 6]: 84.1%

Compound: COc1cc(OC)c(Nc2ncnc3sc(C(=O)O)c(C)c23)cc1Cl [UM_028]
inhibition at 1 µM [3, 5]: 3.45%
inhibition at 10 µM [3, 6]: 16.7%
Avg. Normalized % Inhibition, 10uM, ADP Kinase Glo [4]: Negligible

Compound: O=C(O)Cc1cc(C2CCN(C(=O)Cc3n[nH]c4ccccc34)CC2)[nH]n1 [UM_039]
NanoBRET binding, result in words [3]: negligible activity
inhibition at 1 µM [3, 5]: 2.17%
inhibition at 10 µM [3, 6]: 6.89%
Avg. Normalized % Inhibition, 10uM, ADP Kinase Glo [4]: 91% and 91.1687%

Compound: COC(=O)c1cnc(Sc2nnc(-c3cccc4ccccc34)o2)cn1 [UM_254]
Dose-Response Curve Data (NanoBRET signal, replicates) ([2]; Concentration 1.00E-05 M): 5.13 and 5.39 and 6.19 and 4.97
Dose-Response Curve Data (NanoBRET signal, replicates) ([2]; Concentration 1.56E-07 M): 8.00 and 8.01 and 8.11 and 8.38
Dose-Response Curve Data (NanoBRET signal, replicates) ([2]; Concentration 3.13E-07 M): 8.00 and 8.43 and 7.99 and 7.89
IC50 ([3]; HEK293): 2680 nM
Dose-Response Curve Data (NanoBRET signal, replicates) ([3]; Concentration 1.25E-06 M): 7.15 and 8.63 and 7.69 and 7.36
Dose-Response Curve Data (NanoBRET signal, replicates) ([3]; Concentration 2.00E-05 M): 4.80 and 4.63 and 5.32 and 4.99
Dose-Response Curve Data (NanoBRET signal, replicates) ([3]; Concentration 2.50E-06 M): 7.32 and 7.44 and 7.90 and 7.31
Dose-Response Curve Data (NanoBRET signal, replicates) ([3]; Concentration 5.00E-06 M): 6.60 and 7.13 and 7.18 and 7.54
Dose-Response Curve Data (NanoBRET signal, replicates) ([3]; Concentration 6.25E-07 M): 7.54 and 7.48 and 8.39 and 8.00
inhibition at 1 µM [3, 5]: 16.1%
inhibition at 10 µM [3, 6]: 68.2%

Compound: O=C(O)Cc1ccc(NS(=O)(=O)c2cccc(Cl)c2Cl)cc1 [UM_024]
inhibition at 1 µM [3, 5]: 0%
inhibition at 10 µM [3, 6]: 0%
inhibition at 10 µM [4]: 48.6%
